Reference: patent publication US11311598B2, “Peptides and analogs for use in the treatment of oral mucositis” (Soligenix, Inc., priority 2013, dated 2022)
Entries after “also recorded” stand apart in the source; their conditions may differ. *1 amine or outer side, *2 acyl side, *3 side chain or, on linkers, in order; H or OH if unused. Where no end group is shown, it is not given here. [ ]: non-standard residue; d: D form. mp2 = 4-amino-1-methyl-1H-pyrrole-2-carboxylic acid, Cn1cc(N[*:1])cc1C(=O)[*:2]

Legend:
male C3H/HeN mice = experiment: chemotherapy-induced oral and gastrointestinal mucositis in the mouse; type: in vivo; conditions: 25 mg/kg IV on Days −1 and 2, scores evaluated for 4 days after induction
Experimental: In each study, 5-fluorouracil (60 mg/kg IP) was administered to male C3H/HeN mice on Days −4 and −2. […] […] Body weights were also measured daily and colitis severity was determined by video endoscopy on Days 4 and 7. In the first study, RIVPA (SEQ ID NO. 5) (25 mg/kg IV) was administered either once on Day −4 immediately prior to chemotherapy, twice on Days −4 and −2 immediately after chemotherapy or 3 times on Days −1, 2 and 5. […] In the second study, RIVPA (SEQ ID NO. 5) (25 mg/kg IV) was administered on either Days −1, 2 and 5, Days −1, 1 and 3 or Days 0, 2, and 4. […] In the third study, RIVPA (SEQ ID NO. 5) (25 or 5 mg/kg IV, as indicated) was administered either on Days −1, 2 and 5 or on Days 1 and 3. […] Statistical significance was assessed for oral mucositis using a chi-square analysis and for body weight area under the curve (AUC) with an ANOVA on ranks. […] Treatment with R(tBg)V1KR(tBg)V2 (SEQ ID NO. 91) and RIV(mp2)A-NH2 (SEQ ID NO. 92) was administered on Days −1 and 2 at a dose of 25 mg/kg IV.

MRSA [1] = experiment: MRSA bacteremia model (other IDR peptides); type: in vivo; conditions: 5 mg/kg administered 4 hours prior to infection
MRSA [2] = experiment: MRSA skin infection model; type: in vivo, mouse; conditions: 48 or 96 h after bacterial challenge
Experimental: Infection was initiated 1 day after the hair was removed from the dorsal area of each mouse. RIVPA (SEQ ID NO. 5) (25 mg/kg IV or 100 mg/kg SC) was administered 4 h prior to infection and at various times after infection as indicated. Oral linezolid was used as the comparator and was administered daily at 12.5 mg/kg. On Day 0 (at −1 h) each mouse was anesthetized using isoflurane and the shaved dorsal skin was damaged by 7 consecutive applications and removals of surgical tape. This lesion was then immediately infected by topical administration of 10 μL of the bacterial suspension, delivering a total challenge of 7.6 login cfu per mouse. Efficacy was evaluated by measurement of the bacterial burden in punch biopsies of the skin at 48 h (FIG. 14—panel A) and 96 h (FIG. 14—panel B) following the bacterial challenge and by macroscopic assessment of digital images of the skin by a blinded, board-certified pathologist at 48 h (FIG. 14—panel C) and 96 h (FIG. 14—panel D) after infection. […] The mean bacterial burden for each therapeutic group was statistically compared to that of its time-matched saline control through use of a t-test comparison of means, assuming unequal variances, performed on Excel. Comparisons which returned a p value […] were considered statistically different.

Compound | severity of oral mucositis (mucositis scores) (male C3H/HeN mice) | survival (MRSA [1]) | severity of oral mucositis (mucositis scores) (male C3H/HeN mice; listed as 92) | bacterial load in skin punch biopsies relative to control (MRSA [2])
R(tBg)V1KR(tBg)V2 [R(tBg)V1KR(tBg)V2 (SEQ ID NO. 91)] | reduces; also recorded: demonstrated efficacy | improve survival; also recorded: enhances survival |  | 
RIV(mp2)A-NH2 (RIV[mp2]A-NH2; N-terminus assumed; SMILES CC[C@H](C)[C@H](NC(=O)[C@@H](N)CCCNC(=N)N)C(=O)N[C@H](C(=O)Nc1cc(C(=O)N[C@@H](C)C(N)=O)n(C)c1)C(C)C) [RIV(mp2)A-NH2 (SEQ ID NO. 92), mp2 = 4-Amino-1-methyl-1H-pyrrole-2-carboxylic acid] | reduces | enhances survival | demonstrated efficacy | 
RIVPAY* (RIVPA[dY]; also: C-terminal modification (*)) [RIVPAY* (SEQ ID NO. 90)] |  | improve survival |  | 
CC(=O)NC[C@H]1CN(c2ccc(N3CCOCC3)c(F)c2)C(=O)O1 [linezolid, reference compound] |  |  |  | neither linezolid nor RIVPA (SEQ ID NO. 5) reduced bacterial load
